Measured values published in patent publication US9409884B2 (Rigel Pharmaceuticals, Inc., priority 2012, dated 2016).
Each block holds one compound with its values, some of them ahead of it.

Target: AMPK
Experiment: AMPK activation, enzyme-linked immunosorbent assay
Format: biochemical
Summary of the method: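 AMPK activation by test compounds was measured by enzyme-linked immunosorbent assay.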

SMILES: N#Cc1ccc(CN2CCC(Oc3ccc(S(=O)(=O)NC4CCN(Cc5ccncc5)CC4)cn3)CC2)cc1 [Compound 1-53, 6-(1-(4-cyanobenzyl)piperidin-4-yloxy)-N-(1-(pyridin-4-ylmethyl)piperidin-4-yl)pyridine-3-sulfonamide]
- EC50 (Table 8, compounds of Table 1): 0.1 to 0.5 µM

SMILES: N#Cc1ccc(CN2CCC(Oc3ccc4oc(C(=O)NC5CCN(Cc6ccccc6)CC5)cc4c3)CC2)cc1 [Compound 1-114, N-(1-benzylpiperidin-4-yl)-5-(1-(4-cyanobenzyl)piperidin-4-yloxy)benzofuran-2-carboxamide]
- EC50 (Table 8, compounds of Table 1): 0.1 to 0.5 µM

SMILES: N#Cc1ccc(N2CCC(Oc3ccc(C(=O)NC4CCN(Cc5cccnc5)CC4)nc3)CC2)cc1 [Compound 1-6, N-(1-(pyridin-3-ylmethyl)piperidin-4-yl)-5-(1-(4-cyanophenyl)piperidin-4-yloxy)picolinamide]
- EC50 (Table 8, compounds of Table 1): 0.1 to 0.5 µM

SMILES: CC(=O)n1c2c(c3cc(C(=O)NC4CCN(Cc5cccnc5)CC4)ccc31)CN(Cc1ccc(C(F)(F)F)cc1)CC2 [Compound 2-20, 5-acetyl-N-(1-(pyridin-3-ylmethyl)piperidin-4-yl)-2-(4-(trifluoromethyl)benzyl)-2,3,4,5-tetrahydro-1H-pyrido[4,3-b]indole-8-carboxamide]
- EC50 (Table 9, compounds of Table 2): 1 to 5 µM

SMILES: O=C(NC1CCN(Cc2ccccc2)CC1)c1ccc(OC2CCN(Cc3ccc(Cl)cc3)CC2)c(Cl)c1 [Compound 5-65, N-(1-benzylpiperidin-4-yl)-3-chloro-4-(1-(4-chlorobenzyl)piperidin-4-yloxy)benzamide]
- EC50 (Table 12, compounds of Table 5): < 1 µM

SMILES: CN(C(=O)c1cc2cc(OC3CCN(c4ccc(C(F)(F)F)cc4)CC3)ccc2o1)C1CCN(C(=O)c2ccncc2)CC1 [Compound 1-118, N-(1-isonicotinoylpiperidin-4-yl)-N-methyl-5-(1-(4-(trifluoromethyl)phenyl)piperidin-4-yloxy)benzofuran-2-carboxamide]
- EC50 (Table 8, compounds of Table 1): 0.1 to 0.5 µM

SMILES: COc1ccc(CN2CCC(Oc3ccc(C(=O)NC4CCN(Cc5ccccc5)CC4)cc3Cl)CC2)cc1 [Compound 5-1, N-(1-benzylpiperidin-4-yl)-3-chloro-4-(1-(4-methoxybenzyl)piperidin-4-yloxy)benzamide]
- EC50 (Table 12, compounds of Table 5): < 1 µM

Next, values leading:

- EC50 (Table 14, compounds of Table 7): < 1 µM
SMILES: N#Cc1ccc(CN2CCC(NC(=O)c3ccc(C(=O)N4CCC(C(=O)c5ccc(OC(F)(F)F)cc5)CC4)nc3)[C@H](F)C2)cc1 (stereo partly drawn) [Compound 7-71, N-((3,4-trans)-1-(4-cyanobenzyl)-3-fluoropiperidin-4-yl)-6-(4-(4-(trifluoromethoxy)benzoyl)piperidine-1-carbonyl) nicotinamide]

- EC50 (Table 14, compounds of Table 7): 10 to 20 µM
SMILES: COc1ccc(C(=O)C2CCN(C(=O)c3ncc(C(=O)NC4CCN(Cc5ccc(C#N)cc5)CC4)cc3CCCNC(=O)CCOCCOCCOCCOCCNC(=O)CCCC[C@@H]3SC[C@@H]4NC(=O)N[C@@H]43)CC2)cc1 [Compound 7-19, N-(1-(4-cyanobenzyl)piperidin-4-yl)-5-(5,21-dioxo-25-((3aS,4S,6aR)-2-oxohexahydro-1H-thieno[3,4-d]imidazol-4-yl)-8,11,14,17-tetraoxa-4,20-diazapentacosyl)-6-(4-(4-methoxybenzoyl)piperidine-1-carbonyl)nicotinamide]

- EC50 (Table 13, compounds of Table 6): 1 to 10 µM
SMILES: N#Cc1ccc(CN2CCC(NC(=O)c3cc4cc(NC(=O)C5CCN(c6ccc(C(F)(F)F)cc6)CC5)ccc4o3)CC2)cc1 [Compound 6-83, N-(2-(1-(4-cyanobenzyl)piperidin-4-ylcarbamoyl)benzofuran-5-yl)-1-(4-(trifluoromethyl)phenyl) piperidine-4-carboxamide]

- EC50 (Table 13, compounds of Table 6): 0.1 to 1 µM
SMILES: N#Cc1ccc(CN2CCC(NC(=O)c3cc4cc(NC(=O)c5ccc(N6CCCC6)cc5)ccc4o3)CC2)cc1 [Compound 6-68, N-(1-(4-cyanobenzyl)piperidin-4-yl)-5-(4-(pyrrolidin-1-yl)benzamido)benzofuran-2-carboxamide]

- EC50 (Table 12, compounds of Table 5): 1 to 10 µM
SMILES: COc1ccc(CN2CCC(Oc3ccc(C(=O)NCCCNC(=O)OC(C)(C)C)cc3Cl)CC2)cc1 [Compound 5-97, tert-butyl 3-(3-chloro-4-(1-(4-methoxybenzyl)piperidin-4-yloxy)benzamido) propylcarbamate]
